Laboratory results as given in PubChem BioAssay AID1963856 (Molecular Pharmacology Branch, DTP, NCI, 2024).

Test system: LG0567-F671-PDC KRAS tumor spheroid viability
Assay: Anticancer human tumor LG0567-F671-PDC patient-derived lung adenocarcinoma cell line growth inhibition [KRAS2]
Conditions: spheroids with HUVEC and MSC; for IC50: curve of first compound; for viability, T/C: stronger effect = lower value
How it was run: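 Combination screen of spheroid viability in tumor-cell co-cultures with endothelial (HUVEC) and mesenchymal stem cell stroma. Each agent was tested in half-log dilutions, topping at clinical Cmax or at 10 microM without a known Cmax.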

[1] = second compound 0.1 µM, first compound 0.0316 µM
[2] = second compound 0.1 µM, first compound 0.1 µM
[3] = second compound 0.1 µM, first compound 0.316 µM
[4] = second compound 0.1 µM, first compound 1 µM
[5] = second compound 0.1 µM, first compound 3.16 µM
[6] = second compound 0.1 µM, first compound 10 µM
[7] = second compound 0.316 µM, first compound 0.0316 µM
[8] = second compound 0.316 µM, first compound 0.1 µM
[9] = second compound 0.316 µM, first compound 0.316 µM
[10] = second compound 0.316 µM, first compound 1 µM
[11] = second compound 0.316 µM, first compound 3.16 µM
[12] = second compound 0.316 µM, first compound 10 µM
[13] = second compound 1 µM, first compound 0.0316 µM
[14] = second compound 1 µM, first compound 0.1 µM
[15] = second compound 1 µM, first compound 0.316 µM
[16] = second compound 1 µM, first compound 1 µM
[17] = second compound 1 µM, first compound 3.16 µM
[18] = second compound 1 µM, first compound 10 µM
[19] = second compound 3.16 µM, first compound 0.0316 µM
[20] = second compound 3.16 µM, first compound 0.1 µM
[21] = second compound 3.16 µM, first compound 0.316 µM
[22] = second compound 3.16 µM, first compound 1 µM
[23] = second compound 3.16 µM, first compound 3.16 µM
[24] = second compound 3.16 µM, first compound 10 µM
[25] = second compound 10 µM, first compound 0.0316 µM
[26] = second compound 10 µM, first compound 0.1 µM
[27] = second compound 10 µM, first compound 0.316 µM
[28] = second compound 10 µM, first compound 1 µM
[29] = second compound 10 µM, first compound 3.16 µM
[30] = second compound 10 µM, first compound 10 µM
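Also: drug exposure lasted seven days after spheroids formed for three days.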
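For viability, T/C in this document: 100% = DMSO vehicle control viability.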

| Structure (SMILES) | IC50 (second compound 0.1 µM) [nM] | IC50 (second compound 0.316 µM) [nM] | IC50 (second compound 1 µM) [nM] | IC50 (second compound 3.16 µM) [nM] | IC50 (second compound 10 µM) [nM] | viability, T/C [1] [%] | viability, T/C [2] [%] | viability, T/C [3] [%] | viability, T/C [4] [%] | viability, T/C [5] [%] | viability, T/C [7] [%] | viability, T/C [8] [%] | viability, T/C [9] [%] | viability, T/C [10] [%] | viability, T/C [11] [%] | viability, T/C [13] [%] | viability, T/C [14] [%] | viability, T/C [15] [%] | viability, T/C [16] [%] | viability, T/C [17] [%] | further results |
| --- | --- | --- | --- | --- | --- | --- | --- | --- | --- | --- | --- | --- | --- | --- | --- | --- | --- | --- | --- | --- | --- |
| O=C(c1cc(Cc2n[nH]c(=O)c3ccccc23)ccc1F)N1CCN(C(=O)C2CC2)CC1 + CNCc1ccccc1-c1csc(C(C)Nc2nc(C)nc3cc(OC)c(OC)cc23)c1 | > 10000 | > 10000 | > 10000 | 3590 | < 31.6 | 88.1 | 95.4 | 80.6 | 79.5 | 74.1 | 69.6 | 58.8 | 63.9 | 52.8 | 61.5 | 78.1 | 72.2 | 68.3 | 71.5 | 67 | viability, T/C [6]: 81.6%; viability, T/C [12]: 60.5%; viability, T/C [18]: 64.4%; viability, T/C [19]: 46.5%; viability, T/C [20]: 80%; viability, T/C [21]: 84.2%; viability, T/C [22]: 0.72%; viability, T/C [23]: 69.7%; viability, T/C [24]: 0.31%; viability, T/C [25]: 0.22%; viability, T/C [26]: 0.82%; viability, T/C [27]: 0.19%; viability, T/C [28]: 0.61%; viability, T/C [29]: 0.17%; viability, T/C [30]: 0.2% |
| CC1COCCN1c1cc(-c2ccnn2C)c2ccnc(-c3ccn[nH]3)c2n1 (stereo not given) + COc1cc2nc(C)nc(NC(C)c3cc(N)cc(C(F)(F)F)c3)c2cc1OC1CCOC1 | 219 | 79.1 | 67.7 | 14.4 | 46.1 | 60.8 | 50.1 | 56.2 | 41.2 | 15.7 | 70.7 | 46.7 | 23.8 | 15.3 | 36.7 | 59.6 | 44.2 | 36.2 | 16.9 | 18.4 | viability, T/C (second compound 0.1 µM, first compound 0.01 µM): 91.9%; viability, T/C (second compound 0.316 µM, first compound 0.01 µM): 84%; viability, T/C (second compound 1 µM, first compound 0.01 µM): 79.3%; viability, T/C (second compound 3.16 µM, first compound 0.01 µM): 55.5%; viability, T/C [19]: 37.9%; viability, T/C [20]: 21.8%; viability, T/C [21]: 10.1%; viability, T/C [22]: 4.98%; viability, T/C [23]: 24.5%; viability, T/C (second compound 10 µM, first compound 0.01 µM): 53.2%; viability, T/C [25]: 54.3%; viability, T/C [26]: 43.6%; viability, T/C [27]: 29.6%; viability, T/C [28]: 32.2%; viability, T/C [29]: 22.1% |
| COC(=O)c1ccc2c(C(=Nc3ccc(N(C)C(=O)CN4CCN(C)CC4)cc3)c3ccccc3)c(O)[nH]c2c1 + CC1OCC2(CCN(c3cnc(Sc4ccnc(N)c4Cl)c(N)n3)CC2)C1N | > 10000 | < 31.6 | < 31.6 | < 31.6 | < 31.6 | 55.5 | 50.5 | 47.3 | 57.5 | 57.8 | 29.1 | 29.2 | 26.4 | 39.5 | 36.3 | 25.5 | 23.4 | 23.6 | 30.6 | 38.2 | viability, T/C [6]: 51.8%; viability, T/C [12]: 37.3%; viability, T/C [18]: 34%; viability, T/C [19]: 19.5%; viability, T/C [20]: 20.1%; viability, T/C [21]: 19%; viability, T/C [22]: 24.1%; viability, T/C [23]: 32.5%; viability, T/C [24]: 27.8%; viability, T/C [25]: 13.7%; viability, T/C [26]: 13.9%; viability, T/C [27]: 13.2%; viability, T/C [28]: 19.5%; viability, T/C [29]: 23.6%; viability, T/C [30]: 26.7% |
| CC1(C)CCC(CN2CCN(c3ccc(C(=O)NS(=O)(=O)c4ccc(NCC5CCOCC5)c([N+](=O)[O-])c4)c(Oc4cnc5[nH]ccc5c4)c3)CC2)=C(c2ccc(Cl)cc2)C1 + COc1cc2nc(C)nc(NC(C)c3cc(N)cc(C(F)(F)F)c3)c2cc1OC1CCOC1 | 1510 | 1360 | 1360 | 1220 | 640 | 73.5 | 67.3 | 59 | 68.8 | 18.8 | 67.5 | 66.5 | 61.2 | 59.6 | 25 | 69 | 73.3 | 72.6 | 58.7 | 24.1 | viability, T/C [6]: 11.7%; viability, T/C [12]: 7.5%; viability, T/C [18]: 3.67%; viability, T/C [19]: 70.2%; viability, T/C [20]: 70.7%; viability, T/C [21]: 62.8%; viability, T/C [22]: 57.8%; viability, T/C [23]: 15.6%; viability, T/C [24]: 5.87%; viability, T/C [25]: 81.3%; viability, T/C [26]: 76.5%; viability, T/C [27]: 63%; viability, T/C [28]: 42.7%; viability, T/C [29]: 14.1%; viability, T/C [30]: 1.67% |
